Data from PubChem BioAssay AID602133 (Sanford-Burnham Center for Chemical Genomics, 2011).
Activity calls are given as the source filed them. The rule behind the calls is not given here.

Molecular target: glucose-6-phosphate dehydrogenase-6-phosphogluconolactonase (Plasmodium falciparum 3D7)
Test: PfG6PD enzyme inhibitors, kinetic orthogonal readout, SAR follow-up, orthogonal assay for PfG6PD antimalarial inhibitor project, biochemical, kinetic direct NADPH detection, set 2 (AID 602133)
Settings: recombinant PfG6PD

SMILES | IC50
O=C(NCCN1CCOCC1)c1ccc2c(c1)NC(=O)c1ccccc1S2 | > 80 µM (inactive)
CCN(CC)CCCC(C)Nc1ccnc2cc(Cl)ccc12 (stereo not drawn) | 43 µM
CCN1CCCC1CNC(=O)c1ccc2c(c1)NC(=O)/C(=C/c1ccc(F)cc1)S2 (stereo not drawn) | 2.06 µM
CN(C)c1ccccc1CNC(=O)c1ccc2c(c1)NC(=O)/C(=C/c1ccccc1F)S2 | 67.8 µM
CCC(C)N(CCNC(=O)c1ccc2c(c1)NC(=O)c1ccccc1S2)C1CCCCC1 (stereo not drawn) | 13.3 µM
CCN1CCCC1CNC(=O)c1ccc2c(c1)NC(=O)C(Cc1ccccc1F)S2 (stereo not drawn) | > 80 µM (inactive)
NC1CCN(C(=O)c2ccc3c(c2)NC(=O)/C(=C/c2ccccc2F)S3)C1 (stereo not drawn) | 35 µM
CCN(CC)CCNC(=O)c1ccc2c(c1)NC(=O)/C(=C/c1ccccc1F)S2 | 4.75 µM
CCN1CCC[C@@H]1CNC(=O)c1ccc2c(c1)NC(=O)/C(=C/c1ccccc1F)S2 | 1.94 µM

Results, then the compound that gave them:

IC50 | SMILES
4.84 µM | CCN1CCC[C@@H]1CNC(=O)c1ccc2c(c1)NC(=O)c1ccccc1S2
9.97 µM | CCC(C)N1CCCC1CNC(=O)c1ccc2c(c1)NC(=O)c1ccccc1S2 (stereo not drawn)
4.65 µM | CCN1CCC[C@H]1CNC(=O)c1ccc2c(c1)NC(=O)/C(=C/c1ccccc1F)S2
> 80 µM (inactive) | NC1CCN(C(=O)c2ccc3c(c2)NC(=O)c2ccccc2S3)C1 (stereo not drawn)
2.88 µM | CCN1CCCC1CNC(=O)c1ccc2c(c1)NC(=O)/C(=C/c1ccc3ccccc3c1)S2 (stereo not drawn)
> 80 µM (inactive) | NCCNC(=O)c1ccc2c(c1)NC(=O)c1ccccc1S2
18.3 µM | O=C(NCCN1CCCCC1)c1ccc2c(c1)NC(=O)c1ccccc1S2
24.4 µM | CC(C)(C)OC(=O)N1CCCC1CNC(=O)c1ccc2c(c1)NC(=O)/C(=C/c1ccccc1F)S2 (stereo not drawn)
46.4 µM | CCN1CCC[C@H]1CNC(=O)c1ccc2c(c1)NC(=O)c1ccccc1S2
